In patent US20110020252A1, “METHOD OF LONG LASTING HUMAN SKIN TANNING” (priority 2010, published 2011):

How the values were obtained:
skin = settings: cited from earlier work
hepatic enzyme = settings: compared with Rifampin; cited from earlier work
human skin = experiment: Skin tanning with oral Rifampin plus sun/UVR exposure (patient, volunteers, tanning booth users)
[1] = 600 mg to 1200, up to 6 months or more, tuberculosis treatment; cited from earlier work
[2] = cited from earlier work
[3] = human, in vivo
[4] = Safety of Rifampin at 600 to 1200 mg daily; type: in vivo, human; settings: 600 mg to 1200 mg as a daily dose
Text: Symptoms of overdose may include swelling of face or around eyes, itching over the entire body, orange or red discoloration of skin or eyes, nausea, vomiting, drowsiness, and loss of consciousness. If overdose is suspected, contact your local poison control center or emergency room immediately. One needs to take the prescribed amount for tanning to avoid any overdosing.
It has one of the best safety records taken for such a long time. It can be safely used for tanning in the doses of 600 to 1200 mg (dose depending on the weight) day orally for 3-5 days or till one obtains the desired tan without any untoward effects.

O=C[C@H](O)[C@H](O)[C@H](O)CO [D-ribose]
effect on wound surface (skin; applied directly to a wound): caused the surface to become brown | effect on tanning (skin; in water applied to the skin): showed no such effect on tanning

CO[C@H]1/C=C/O[C@@]2(C)Oc3c(C)c(O)c4c(c3C2=O)C2=NC3(CCN(CC(C)C)CC3)NC2=C(NC(=O)/C(C)=C\C=C\[C@H](C)[C@H](O)[C@@H](C)[C@@H](O)[C@@H](C)[C@H](OC(C)=O)[C@@H]1C)C4=O [Rifabutin]
hepatic enzyme induction (hepatic enzyme): less hepatic enzyme induction

CO[C@H]1/C=C/O[C@@]2(C)Oc3c(C)c(O)c4c(O)c(c(/C=N/N5CCN(C)CC5)c(O)c4c3C2=O)NC(=O)/C(C)=C\C=C\[C@H](C)[C@H](O)[C@@H](C)[C@@H](O)[C@@H](C)[C@H](OC(C)=O)[C@@H]1C [Rifampin]
tanning effect by skin type (human skin; […]): more pronounced in brown skinned | dandruff production (human skin; experimental test individuals using this method of tanning): less dandruff production | skin staining of tuberculosis patients (human skin; use for many months with exposure to Sun light): became much darkly stained | tanning result (human skin; volunteers and tanning booth users, minimum UVR exposure): good natural looking long lasting tanning | adverse effects [1]: without any serious adverse effect | plasma levels, mean ([2]; 600 mg dose on an empty stomach): 7000 ng/mL | effect of antacids on absorption ([2]; antacids): do not affect absorption | administered drug excreted unchanged through the urine ([2]; in vivo): about 7% | excretion into breast milk ([2]; in vivo): excreted into breast milk | fraction metabolized by the liver microsomal enzymes ([2]; in vivo): Approximately 85% | time after which almost the entire drug is deacetylated ([2]; in vivo): about 6 hours | urinary elimination, share of the dose that is excreted ([2]; in vivo): about 30% | time to peak plasma concentrations ([2]; orally administered): 1 to 2 h | peak blood concentration when taken with a meal ([2]; taken with a meal): 36% | dose eliminated within 24 hours ([2]; within 24 hours): Approximately 50% | time until urine and facial orange coloration disappears [3]: ≤ 24 h | overdose effects [4]: haven't noticed any overdose effects
